Reference: patent US20220154247A1, “ULTRASENSITIVE METHOD FOR DETECTING CELL DEATH” (priority 2019, published 2022)
Entries after “also recorded” stand apart in the source; their conditions may differ.

Columns and labels:
[1] = system: MDA-MB-231 cells; experiment: DNA fragments in the cytoplasmic fraction detected by capillary electrophoresis (fragment analyzer); format: cell-based; conditions: MDA-MB-231 cells treated 24 h with 50 or 100 nM staurosporine, compared to untreated cells
Method: MDA-MB-231 cells were inoculated in 6 [MUT] at an amount of 3 million cells per 35 ml of DMEM high glucose medium (10% FCS, P/S). The next day, the MDA-MB-231 cells were treated with 50 nM and 100 nM staurosporine. The medium of the 2 untreated [MUT] was changed. After 24 h of treatment, the MDA-MB-231 cells were lysed with 2 ml of lysis buffer added to the [MUT] for 15 min at ambient temperature, then 2 ml were transferred into a tube and centrifuged at 2000 g for 5 min. The supernatant was then treated with RNaseA (20 μg/ml) and then with Proteinase K (used at 100 ug/ml), and placed at 70° C. for 15 min. The lysis buffer is a mixture of 50 mM 4-(2-hydroxyethyl)-1-piperazineethanesulfonic acid, 5 mM ethylenediaminetetraacetic acid, 150 mM sodium chloride, and 50 μg/ml digitonin. 1/10 volume of sodium acetate (NaAc) (3 M, pH 5.2) was then added. DNA was precipitated with 1 volume of isopropanol. The samples were left at ambient temperature for 15 min and then centrifuged at 20 000 g for 20 min at +4° C. The supernatant was aspirated and the pellet was washed with 75% ethanol. The pellet was dried and then resuspended in 30 μl of TE at pH 8 and analyzed in a fragment analyzer.

[2] = system: MOLM14 cells; experiment: Annexin V/propidium iodide labeling, flow cytometry, percentage of apoptotic cells; format: cell-based; conditions: MOLM14 cells treated 16 h with 0-10 μM etoposide; no plateau with the PCR method
Method: The cells are washed with PBS then resuspended in 1× binding buffer at a concentration of 1×10^6 cells/ml. 10 μl of Annexin V Pacific Blue and 10 μl of propidium iodide (Biolegend kit) are added to 200 μl of this cell suspension, which is then incubated for 15 minutes in darkness and at ambient temperature. After centrifugation at 300 g for 5 min, the supernatant is gently aspirated and 500 μl of 1× binding buffer are added.
These cells are then used in flow cytometry for determining the effect of the treatment and the number of cells in apoptosis. These cells are sorted depending on their annexin V and propidium iodide statuses in order to then carry out a PCR.
MOLM14 cells are left untreated (NT) or treated for 16 h with increasing concentrations of etoposide (0-0.62-1.25-2.5-5 or 10 μM).
The cells are labeled using the Pacific Blue™ Annexin V kit (Biolegend) according to the supplier's recommendations and then analyzed by flow cytometry (MACSQuant VYB—Miltenyi Biotec). The percentage of positive apoptotic cells (annexin V) is determined.

| Compound | DNA fragments, a marker of cell death, in the cytoplasmic fraction [1] | concentration from which the flow cytometry method (annexin V) reaches a detection plateau [2] |
| --- | --- | --- |
| CN[C@@H]1C[C@H]2O[C@@](C)([C@@H]1OC)n1c3ccccc3c3c4c(c5c6ccccc6n2c5c31)C(=O)NC4 [staurosporine] | detected; also recorded: increase in the quantity of DNA fragments | – |
| COc1cc([C@@H]2c3cc4c(cc3[C@@H](O[C@@H]3O[C@@H]5CO[C@@H](C)O[C@H]5[C@H](O)[C@H]3O)[C@H]3COC(=O)[C@H]23)OCO4)cc(OC)c1O [etoposide] | – | ≥ 2.5 µM |
